IC50 data for 19 compounds are collected here from patent US20230192691A1, “HETEROCYCLIC COMPOUNDS AS BTK INHIBITORS” (Beijing InnoCare Pharma Tech Co., Ltd., priority 2020, published 2023).

The target in experiment [1] is T1, human recombinant BTK C481S protein (Homo sapiens, UniProt Q06187, C481S).
T1 construct: made in house
The experiment is described as follows: BTK C481S activity inhibition assay (HTRF in vitro kinase assay). Particulars: 35 μM ATP, 1.5 ng/μL BTK C481S. It is filed as biochemical. As to the method:
In vitro kinase assay was used to evaluate the effects of compounds of the present invention on BTK C481S activity (Table 1).
(§1) By using the homogeneous time-resolved fluorescence (HTRF) kinase detection kit (Cisbio, catalog number 62TK0PEC), the enzymatic activity of BTK C481S is determined by detecting the phosphorylation level of the substrate in the kinase reaction. The reaction buffer contains the enzyme reaction buffer (1×) from the kit, 5 mM MgCl2, 1 mM DTT, 10 nM SEB, and 0.01% Tween-20; the kinase reaction solution contains human recombinant BTK C481S protein (purified in-house) diluted to 1.5 ng/μL with the reaction buffer; the substrate reaction solution contains biotin-labeled tyrosine kinase substrate diluted to 0.5 μM with the reaction buffer and 35 μM ATP; the detection buffer contains Eu^3+-labeled cage antibody diluted to 0.05 ng/μL and streptavidin-labeled XL665 antibody diluted to 31.25 nM with the reaction buffer; the test compound is dissolved and diluted to 100 μM with DMSO, followed by a 4-fold serial dilution with DMSO to the lowest concentration of 6.1 nM and finally 40-time dilution with the reaction buffer for each concentration point. If the IC50 value of the compound is very low, the initial concentration of the compound is reduced.
(§2) Add 4 μL test compound solution and 2 μL kinase reaction solution to a 384-well detection plate (Corning, catalog number 3674), mix well and incubate at room temperature for 15 minutes; add 4 μL substrate reaction solution and incubate for 50 minutes; add 10 μL detection buffer, mix well and stand for 60 minutes; detect signal at 620 nm and 665 nm using an Envision plate reader (Perkin Elmer). The signal value (absorbance at 665 nm/absorbance at 620 nm) is positively correlated with the degree of phosphorylation of the substrate, thereby detecting the kinase activity of BTK C481S. In this experiment, the group without BTK is the negative control (100% inhibition) and the group with BTK C481 S but no compound is the positive control (0% inhibition). The inhibition curve is plotted and the corresponding IC50 value of the test compound is calculated using XLfit software (TD Business Solutions Ltd., UK).
A general note: In TR-FRET formats the signal depends on donor and acceptor labels being close together.

In experiment [2] the target is T2, human-derived recombinant BTK protein (Homo sapiens, UniProt Q06187).
T2 construct: purchased Carna Biosciences 08-180
Put plainly: BTK activity inhibition assay (HTRF in vitro kinase assay). It is filed as biochemical. As to conditions: 40 μM ATP, 0.2 ng/μL BTK. On the procedure:
In vitro kinase assay was used to evaluate the effects of compounds of the present invention on BTK activity (Table 1).
as §1, with “BTK” for “BTK C481S”, “SEB” for “SEB,”, “human-derived” for “human”, “(Carna Biosciences, Catalog No. 08-180)” for “(purified in-house)”, “0.2” for “1.5”, “40” for “35”
as §2, with “BTK.” for “BTK C481S.”, “BTK” for “BTK C481 S”, “(ID” for “(TD”

T1 sequence (Q06187 whole entry C481S): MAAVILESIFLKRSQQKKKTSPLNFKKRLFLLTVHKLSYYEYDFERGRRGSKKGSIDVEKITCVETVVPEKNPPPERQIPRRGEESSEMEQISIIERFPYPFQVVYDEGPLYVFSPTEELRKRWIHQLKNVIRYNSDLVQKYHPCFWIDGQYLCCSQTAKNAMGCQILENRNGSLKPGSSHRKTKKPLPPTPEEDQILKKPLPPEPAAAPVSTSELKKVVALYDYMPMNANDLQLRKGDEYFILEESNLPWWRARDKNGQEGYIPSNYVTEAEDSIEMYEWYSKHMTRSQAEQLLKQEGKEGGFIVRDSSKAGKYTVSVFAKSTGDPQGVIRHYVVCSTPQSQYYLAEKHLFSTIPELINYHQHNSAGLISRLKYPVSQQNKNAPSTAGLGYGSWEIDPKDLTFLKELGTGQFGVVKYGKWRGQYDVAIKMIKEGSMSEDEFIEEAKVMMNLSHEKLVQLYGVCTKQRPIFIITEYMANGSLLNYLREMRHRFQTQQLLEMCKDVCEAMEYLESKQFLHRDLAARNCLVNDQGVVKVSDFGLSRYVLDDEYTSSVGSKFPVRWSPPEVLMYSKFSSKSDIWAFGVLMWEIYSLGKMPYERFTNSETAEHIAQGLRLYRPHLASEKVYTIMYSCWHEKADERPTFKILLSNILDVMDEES
T2 sequence (Q06187 whole entry): as the sequence (Q06187 whole entry C481S) above, with S481C counted along it

As to `COc1ccc(F)cc1C(=O)NCc1ccc(-c2nc(N3CCC(C)(C(=O)O)CC3)n3ccnc(N)c23)cc1` [Compound 27, 1-(8-amino-1-(4-((5-fluoro-2-methoxybenzamido)methyl)phenyl)imidazo[1,5-a]pyrazin-3-yl)-4-methylpiperidine-4-carboxylic acid], the IC50 (commonly the concentration at which inhibition is half-maximal) in experiment [1] amounted to 1.3 nM; in experiment [2] it was 2.7 nM.
Turning to `COc1ccc(F)cc1C(=O)NCc1ccc(-n2c(=O)n(C(C)C(F)(F)F)c3ncnc(N)c32)cc1` (stereo not shown) [Compound 53, N-(4-(6-amino-8-oxo-9-(1,1,1-trifluoropropan-2-yl)-8,9-dihydro-7H-purin-7-yl)benzyl)-5-fluoro-2-methoxybenzamide], the figures for the half-inhibitory concentration (IC50) in experiment [1] and in experiment [2] were 21 nM and 5.6 nM, respectively.
Turning to `COc1ccc(F)cc1C(=O)NCc1ccc(-c2nc([C@H]3CC[C@H](CO)CC3)n3ccnc(N)c23)cc1` [Compound 5, N-(4-(8-amino-3-((1r,4r)-4-(hydroxymethyl)cyclohexyl)imidazo[1,5-a]pyrazin-1-yl)benzyl)-5-fluoro-2-methoxybenzamide], the half-maximal inhibitory concentration (IC50) in experiment [1] came to 2.6 nM; in experiment [2], 4.6 nM.
`COc1ccc(F)cc1C(=O)NCc1ccc(-c2nc([C@H]3CC[C@H](C(=O)O)CC3)n3ccnc(N)c23)cc1` [Compound 13, (1r,4r)-4-(8-amino-1-(4-((5-fluoro-2-methoxybenzamido)methyl)phenyl)imidazo[1,5-a]pyrazin-3-yl)cyclohexane-1-carboxylic acid]: the IC50 in experiment [1] is 0.8 nM; in experiment [2], 1.4 nM.
Turning to `COc1ccc(F)cc1C(=O)NCc1ccc(-c2nc([C@]3(C)CC[C@@](C)(C(=O)O)CC3)n3ncnc(N)c23)cc1` [Compound 47, (1r,4r)-4-(4-amino-5-(4-((5-fluoro-2-methoxybenzamido)methyl)phenyl)imidazo[5,1-f][1,2,4]triazin-7-yl)-1,4-dimethylcyclohexane-1-carboxylic acid], the IC50 was found to be 1.4 nM in experiment [1] and 1.3 nM in experiment [2].
For `COc1ccc(F)cc1C(=O)NCc1ccc(-c2nc([C@]3(C)CC[C@](C)(C(=O)OC)CC3)n3ccnc(N)c23)cc1` [Compound 39, methyl (1s,4s)-4-(8-amino-1-(4-((5-fluoro-2-methoxybenzamido)methyl)phenyl)imidazo[1,5-a]pyrazin-3-yl)-1,4-dimethylcyclohexane-1-carboxylate] the same measures were 0.6 nM and 3.3 nM.
For `COc1ccc(F)cc1C(=O)NCc1ccc(-c2nc(C(C)C(F)(F)F)n3ncnc(N)c23)cc1` (stereo not shown) [Compound 26, N-(4-(4-amino-7-(1,1,1-trifluoropropan-2-yl)imidazo[5,1-f][1,2,4]triazin-5-yl)benzyl)-5-fluoro-2-methoxybenzamide] the same measures were 11 nM and 3.8 nM.
For `COc1ccc(F)cc1C(=O)NCc1ccc(-c2nc(C3CCCC3)n3ncnc(N)c23)cc1` [Compound 12, N-(4-(4-amino-7-cyclopentylimidazo[5,1-f][1,2,4]triazin-5-yl)benzyl)-5-fluoro-2-methoxybenzamide], the IC50 in experiment [2] stood at 3 nM.
For `COc1ccc(F)cc1C(=O)NCc1ccc(-c2nc(N3CCOCC3)n3ncnc(N)c23)cc1` [Compound 45, N-(4-(4-amino-7-morpholinoimidazo[5,1-f][1,2,4]triazin-5-yl)benzyl)-5-fluoro-2-methoxybenzamide], the IC50 in experiment [1] was 2.6 nM; in experiment [2] it was 9.4 nM.
As for `COc1ccccc1C(=O)NCc1ccc(-c2nc(C3CCC(CO)OC3)n3ccnc(N)c23)cc1F` (stereo not shown) [Compound 11, N-(4-(8-amino-3-(6-(hydroxymethyl)tetrahydro-2H-pyran-3-yl)imidazo[1,5-a]pyrazin-1-yl)-2-fluorobenzyl)-2-methoxybenzamide], the IC50 in experiment [1] is 3.9 nM; in experiment [2], 20 nM.
As to `CNC(=O)[C@H]1CC[C@H](c2nc(-c3ccc(CNC(=O)c4cc(F)ccc4OC)cc3)c3c(N)nccn32)CC1` [Compound 23, N-(4-(8-amino-3-((1r,4r)-4-(methylcarbamoyl)cyclohexyl)imidazo[1,5-a]pyrazin-1-yl)benzyl)-5-fluoro-2-methoxybenzamide], the IC50 came to 3 nM in experiment [1] and 1 nM in experiment [2].
Consider `COc1ccc(C)nc1C(=O)NCc1ccc(-c2nc(C3CCCOC3)n3ccnc(N)c23)cc1` (stereo not shown) [Compound 19, N-(4-(8-amino-3-(tetrahydro-2H-pyran-3-yl)imidazo[1,5-a]pyrazin-1-yl)benzyl)-3-methoxy-6-methylpicolinamide], for which the figures for the IC50 in experiment [1] and in experiment [2] were 201 nM and 212 nM, respectively.
Consider `COc1ccc(F)cc1C(=O)NCc1ccc(-c2nc(C34CC(C(=O)O)(C3)C4)n3ncnc(N)c23)cc1` [Compound 31, 3-(4-amino-5-(4-((5-fluoro-2-methoxybenzamido)methyl)phenyl)imidazo[5,1-f][1,2,4]triazin-7-yl)bicyclo[1.1.1]pentane-1-carboxylic acid], for which the IC50 in experiment [1] amounted to 3 nM; in experiment [2], 0.6 nM.
For `COc1ccc(F)cc1C(=O)NCc1ccc(-c2nc(C34CCC(C(=O)N5CCOCC5)(CC3)CC4)n3ccnc(N)c23)cc1` [Compound 37, N-(4-(8-amino-3-(4-(morpholine-4-carbonyl)bicyclo[2.2.2]octan-1-yl)imidazo[1,5-a]pyrazin-1-yl)benzyl)-5-fluoro-2-methoxybenzamide] the same measures were 1.9 nM and 1.3 nM.
Regarding `COc1ccc(F)cc1C(=O)NCc1ccc(-c2nc(C3(C(F)(F)F)CC3)n3ccnc(N)c23)cc1` [Compound 42, N-(4-(8-amino-3-(1-(trifluoromethyl)cyclopropyl)imidazo[1,5-a]pyrazin-1-yl)benzyl)-5-fluoro-2-methoxybenzamide], the IC50 in experiment [1] is 4.3 nM; in experiment [2], 1.7 nM.
Regarding `COc1ccc(F)cc1C(=O)NCc1ccc(-c2nc([C@]3(C)CC[C@](C)(C(=O)O)CC3)n3ncnc(N)c23)cc1` [Compound 46, (1s,4s)-4-(4-amino-5-(4-((5-fluoro-2-methoxybenzamido)methyl)phenyl)imidazo[5,1-f][1,2,4]triazin-7-yl)-1,4-dimethylcyclohexane-1-carboxylic acid], the concentration for half-maximal inhibition (IC50) is 1.6 nM in experiment [1] and 7.7 nM in experiment [2].
As to `COC(=O)C12CC(c3nc(-c4ccc(CNC(=O)c5cc(F)ccc5OC)cc4)c4c(N)ncnn34)(C1)C2` [Compound 29, methyl 3-(4-amino-5-(4-((5-fluoro-2-methoxybenzamido)methyl)phenyl)imidazo[5,1-f][1,2,4]triazin-7-yl)bicyclo[1.1.1]pentane-1-carboxylate], the half-maximal inhibitory concentration (IC50) in experiment [1] stood at 2.1 nM; in experiment [2] it was 1.2 nM.
In the same order, the values of `COc1ccc(F)cc1C(=O)NCc1ccc(-c2nc([C@H]3CC[C@H](C(=O)O)CC3)n3ncnc(N)c23)cc1` [Compound 15, (1r,4r)-4-(4-amino-5-(4-((5-fluoro-2-methoxybenzamido)methyl)phenyl)imidazo[5,1-f][1,2,4]triazin-7-yl)cyclohexane-1-carboxylic acid] are 1.1 nM and 1.4 nM.
For the compound `COc1ccc(F)cc1C(=O)NCc1ccc(-n2c(=O)n(C3CCOCC3)c3ccnc(N)c32)cc1` [Compound 52, N-(4-(4-amino-2-oxo-1-(tetrahydro-2H-pyran-4-yl)-1,2-dihydro-3H-imidazo[4,5-c]pyridin-3-yl)benzyl)-5-fluoro-2-methoxybenzamide], the results for the IC50 in experiment [1] and in experiment [2] were 30 nM and 7.2 nM, respectively.
